Assay results taken from US12077503B2, “Substituted cyclic amides and their use as herbicides” (FMC CORPORATION, priority 2015, dated 2024).

Assays:
Type in all cases: in vivo
[1] = system: ragweed (common ragweed, Ambrosia elatior); assay: Test A preemergence; settings: Preemergence; for Plant response rating, Ragweed: 125 g ai/ha, visual injury after approximately 10 d, 0 to 100 scale where 0 is no effect and 100 is complete control; for Ragweed plant response rating (0 to 100 scale, 0 is no effect, 100 is complete control): 500 g ai/ha, visual injury approx. 10 d
Text: (§1) Seeds of plant species selected from barnyardgrass (Echinochloa crus-galli), Kochia (Kochia scoparia), ragweed (common ragweed, Ambrosia elatior), ryegrass, Italian (Italian ryegrass, Lolium multiflorum), crabgrass, large (Digitaria sanguinalis), giant foxtail (Setaria faberii), green foxtail (Setaria viridis), morningglory (Ipomoea spp.), pigweed (Amaranthus retroflexus), velvetleaf (Abutilon theophrasti), wheat (Triticum aestivum), and corn (Zea mays) were planted into a blend of loam soil and sand and treated preemergence with a directed soil spray using test chemicals formulated in anon-phytotoxic solvent mixture which included a surfactant.
(§2) At the same time, plants selected from these crop and weed species and also blackgrass (Alopecurus myosuroides), and Galium (catchweed bedstraw, Galium aparine) were planted in pots containing the same blend of loam soil and sand and treated with postemergence applications of test chemicals formulated in the same manner. Plants ranged in height from 2 to 10 cm and were in the one- to two-leaf stage for the postemergence treatment. Treated plants and untreated controls were maintained in a greenhouse for approximately 10 d, after which time all treated plants were compared to untreated controls and visually evaluated for injury. Plant response ratings, summarized in Table A, are based on a 0 to 100 scale where 0 is no effect and 100 is complete control. A dash (-) response means no test result.

[2] = system: barnyardgrass (Echinochloa crus-galli); assay: Test A preemergence; settings: Preemergence; for Plant response rating, Barnyardgrass: 125 g ai/ha, visual injury after approximately 10 d, 0 to 100 scale where 0 is no effect and 100 is complete control; for Barnyardgrass plant response rating (0 to 100 scale, 0 is no effect, 100 is complete control): 500 g ai/ha, visual injury approx. 10 d
Text: as §1, §2

[3] = system: giant foxtail (Setaria faberii); assay: Test A preemergence; settings: Preemergence; for Plant response rating, Foxtail, Giant: 125 g ai/ha, visual injury after approximately 10 d, 0 to 100 scale where 0 is no effect and 100 is complete control; for Foxtail, Giant plant response rating (0 to 100 scale, 0 is no effect, 100 is complete control): 500 g ai/ha, visual injury approx. 10 d
Text: as §1, §2

Kochia (Kochia scoparia) [4] = assay: Test A preemergence; settings: Preemergence; for Plant response rating, Kochia: 125 g ai/ha, visual injury after approximately 10 d, 0 to 100 scale where 0 is no effect and 100 is complete control; for Kochia plant response rating (0 to 100 scale, 0 is no effect, 100 is complete control): 500 g ai/ha, visual injury approx. 10 d
Text: as §1, §2

[5] = system: pigweed (Amaranthus retroflexus); assay: Test A preemergence; settings: Preemergence; for Plant response rating, Pigweed: 125 g ai/ha, visual injury after approximately 10 d, 0 to 100 scale where 0 is no effect and 100 is complete control; for Pigweed plant response rating (0 to 100 scale, 0 is no effect, 100 is complete control): 500 g ai/ha, visual injury approx. 10 d
Text: as §1, §2

[6] = system: ryegrass, Italian (Italian ryegrass, Lolium multiflorum); assay: Test A preemergence; settings: Preemergence; for Plant response rating, Ryegrass, Italian: 125 g ai/ha, visual injury after approximately 10 d, 0 to 100 scale where 0 is no effect and 100 is complete control; for Ryegrass, Italian plant response rating (0 to 100 scale, 0 is no effect, 100 is complete control): 500 g ai/ha, visual injury approx. 10 d
Text: as §1, §2

[7] = system: blackgrass (Alopecurus myosuroides); assay: Test A postemergence
Text: as §1, §2

[8] = system: ragweed (common ragweed, Ambrosia elatior); assay: Test A postemergence
Text: as §1, §2

[9] = system: wheat (Triticum aestivum); assay: Test A postemergence
Text: as §1, §2

[10] = system: Galium (catchweed bedstraw, Galium aparine); assay: Test A postemergence
Text: as §1, §2

[11] = system: barnyardgrass (Echinochloa crus-galli); assay: Test A postemergence
Text: as §1, §2

[12] = system: giant foxtail (Setaria faberii); assay: Test A postemergence
Text: as §1, §2

Kochia (Kochia scoparia) [13] = assay: Test A postemergence
Text: as §1, §2

[14] = system: pigweed (Amaranthus retroflexus); assay: Test A postemergence
Text: as §1, §2

corn (Zea mays) = assay: Test A postemergence
Text: as §1, §2

[15] = system: ryegrass, Italian (Italian ryegrass, Lolium multiflorum); assay: Test A postemergence
Text: as §1, §2

[16] = 125 g ai/ha, postemergence, visual rating after approx. 10 d, 0 to 100 scale (0 no effect, 100 complete control)
[17] = Postemergence, 500 g ai/ha, 0 to 100 scale where 0 is no effect and 100 is complete control

For `CN1CC(c2cccc(C(F)(F)F)c2)C(C(=O)Nc2ccccc2[N+](=O)[O-])C1=O` (stereo not shown) [Compound 572], the “Plant response rating, Ragweed” value [1] was 0, the “Ragweed plant response rating (0 to 100 scale, 0 is no effect, 100 is complete control)” value [1] was 50 and the “Plant response rating, Barnyardgrass” value [2] was 90. For the same compound, the “Barnyardgrass plant response rating (0 to 100 scale, 0 is no effect, 100 is complete control)” value [2] was 90, the “Plant response rating, Foxtail, Giant” value [3] was 90 and the “Foxtail, Giant plant response rating (0 to 100 scale, 0 is no effect, 100 is complete control)” value [3] was 90. For the same compound, the “Plant response rating, Kochia” value (Kochia (Kochia scoparia) [4]) was 70, the “Kochia plant response rating (0 to 100 scale, 0 is no effect, 100 is complete control)” value (Kochia (Kochia scoparia) [4]) was 80 and the “Plant response rating, Pigweed” value [5] was 40. For the same compound, the “Pigweed plant response rating (0 to 100 scale, 0 is no effect, 100 is complete control)” value [5] was 80, the “Plant response rating, Ryegrass, Italian” value [6] was 50 and the “Ryegrass, Italian plant response rating (0 to 100 scale, 0 is no effect, 100 is complete control)” value [6] was 50. The “Plant response rating, Blackgrass” value [7, 16] was 70, the “Plant response rating, Blackgrass” value [7, 17] was 80 and the “Plant response rating, Ragweed” value [8, 16] was 0. For the same compound, the “Plant response rating, Ragweed” value [8, 17] was 20, the “Plant response rating, Wheat” value [9, 16] was 60 and the “Plant response rating, Wheat” value [9, 17] was 70. The “Plant response rating, Galium” value [10, 16] was 50, the “Plant response rating, Galium” value [10, 17] was 60 and the “Plant response rating, Barnyardgrass” value [11, 16] was 90. For the same compound, the “Plant response rating, Barnyardgrass” value [11, 17] was 90, the “Plant response rating, Foxtail, Giant” value [12, 16] was 90 and the “Plant response rating, Foxtail, Giant” value [12, 17] was 90. For the same compound, the “Plant response rating, Kochia” value (Kochia (Kochia scoparia) [13]; [16]) was 20, the “Plant response rating, Kochia” value (Kochia (Kochia scoparia) [13]; [17]) was 60 and the “Plant response rating, Pigweed” value [14, 16] was 30. The “Plant response rating, Pigweed” value [14, 17] was 40, the “Plant response rating, Corn” value (corn (Zea mays); [16]) was 60 and the “Plant response rating, Corn” value (corn (Zea mays); [17]) was 80. For the same compound, the “Plant response rating, Ryegrass, Italian” value [15, 16] was 30 and the “Plant response rating, Ryegrass, Italian” value [15, 17] was 60.

For `CN1CC(c2ccc(Br)cc2)C(C(=O)Nc2ccc(F)cc2F)C1=O` (stereo not shown) [Compound 566], the “Plant response rating, Ragweed” value [1] was 60, the “Ragweed plant response rating (0 to 100 scale, 0 is no effect, 100 is complete control)” value [1] was 90 and the “Plant response rating, Barnyardgrass” value [2] was 90. For the same compound, the “Barnyardgrass plant response rating (0 to 100 scale, 0 is no effect, 100 is complete control)” value [2] was 100, the “Plant response rating, Foxtail, Giant” value [3] was 90 and the “Foxtail, Giant plant response rating (0 to 100 scale, 0 is no effect, 100 is complete control)” value [3] was 100. The “Plant response rating, Kochia” value (Kochia (Kochia scoparia) [4]) was 70, the “Kochia plant response rating (0 to 100 scale, 0 is no effect, 100 is complete control)” value (Kochia (Kochia scoparia) [4]) was 80 and the “Plant response rating, Pigweed” value [5] was 80. The “Pigweed plant response rating (0 to 100 scale, 0 is no effect, 100 is complete control)” value [5] was 90, the “Plant response rating, Ryegrass, Italian” value [6] was 20 and the “Ryegrass, Italian plant response rating (0 to 100 scale, 0 is no effect, 100 is complete control)” value [6] was 70. For the same compound, the “Plant response rating, Blackgrass” value [7, 16] was 20, the “Plant response rating, Blackgrass” value [7, 17] was 70 and the “Plant response rating, Ragweed” value [8, 16] was 0. For the same compound, the “Plant response rating, Ragweed” value [8, 17] was 40, the “Plant response rating, Wheat” value [9, 16] was 0 and the “Plant response rating, Wheat” value [9, 17] was 40. The “Plant response rating, Galium” value [10, 16] was 60, the “Plant response rating, Galium” value [10, 17] was 80 and the “Plant response rating, Barnyardgrass” value [11, 16] was 90. The “Plant response rating, Barnyardgrass” value [11, 17] was 90, the “Plant response rating, Foxtail, Giant” value [12, 16] was 90 and the “Plant response rating, Foxtail, Giant” value [12, 17] was 90. For the same compound, the “Plant response rating, Kochia” value (Kochia (Kochia scoparia) [13]; [16]) was 80, the “Plant response rating, Kochia” value (Kochia (Kochia scoparia) [13]; [17]) was 80 and the “Plant response rating, Pigweed” value [14, 16] was 30. The “Plant response rating, Pigweed” value [14, 17] was 60, the “Plant response rating, Corn” value (corn (Zea mays); [16]) was 0 and the “Plant response rating, Corn” value (corn (Zea mays); [17]) was 40. The “Plant response rating, Ryegrass, Italian” value [15, 16] was 30 and the “Plant response rating, Ryegrass, Italian” value [15, 17] was 60.
